Consider seven compounds from patent US8927594B2, “Compounds from soft coral, method of preparation and pharmaceutical uses thereof” (National Sun Yat-Sen University, priority 2010, dated 2015).

The test system of one data set is COX-2. Briefly: COX-2 protein expression in LPS-stimulated RAW264.7 macrophage cells, immunoblot analysis. The format is cell-based, mouse. Conditions: for effect on expression of cyclooxygenase-2 of macrophage cells stimulated with LPS (in words, summary): concentration not stated; for effect on COX-2 expression with LPS treatment (in words): FIG. 2. As for the experimental part: (§1) A mouse macrophage cell line, RAW 264.7, purchased from the American Type Culture Collection (ATCC, No TIB-71) was chosen in the in vitro model. The cells were cultured in DMEM (Dulcbecco/s Modified Eagle medium) containing 10% fetal bovine serum (FBS) and penicillin G (100 U/ml) and streptomycin (100 μg/ml) at 37° C. and 5% CO2. When reaching 80% confluence, the cells were subcultured with trypsin. The cells were subjected to an anti-inflammation assay after subcultured for 36 hours. 3×10^6 RAW264.7 cells were cultured in a 10-cm culture dish and administered with lipopolysaccharide (LPS, 0.01 μg/ml; Sigma L2654). After 16 hours, the cells were collected. In an experiment group, the compound represented by formula 3 was added into the culture dish and followed by LPS before 10 minutes.
(§2) The collected RAW264.7 cells were dissolved with 200 μL of 4° C. lysis buffer (50 mM Tris [pH 7.5], 150 mM NaCl, 1% TritonX-100, 0.1 mM EDTA, 0.1 mM EGTA, 10 μg PMSF, 1 aprotinin, 20 mM NaF, and 0.2 mM Na3VO4). The samples were centrifuged at 25,000 g for 30 minutes at 4° C. for removing the pellet. The supernatant was assayed with Bio-Rad DC protein assay kit (Bio-Rad Laboratories, Hercules, Calif., USA) and the absorbance was read with an ELISA reader (Thermo Electron Corporation, USA) for estimating the protein contents. The calibrated samples with equal volumes were added with a sample buffer (2% SDS, 10% glycerol, 0.1% bromophenol blue, 10% 2-mercaptoethanol, and 50mM Tris) of the same volume. Proteins were separated with 10% SDS-PAGE and transferred to a PVDF membrane ([…], Immobilon-P, Millipore, Bedford, Mass., USA) (1.5 A, 4° C., 2.5 hours). The transferred PVDF membranes were blocked with TTBS (Tris-HCl 20 mM, NaCl 137 mM, pH 7.4 and 0.1% Tween 20) containing 5% skim milk at room temperature for 1 hour and reacted with polyclonal anti-inducible nitric oxide synthase antibody (Transduction Laboratories, Lexington, Ky., USA) or polyclonal anti-cyclooxygenase-2 antibody (Cayman, Ann Arbor, Mich., USA) at room temperature for 3 hours. After washed with TTBS three times, the samples were reacted with HRP-conjugated anti-rabbit IgG antibody (1:2000) at room temperature for 1 hour. After washed with TTBS for three times, an enhanced chemiluminescence detection kit was used for reating with the PVDF membrane and exposed with an X-ray film (Kodak X-OMAT LS, Kodak, Rochester, N.Y., USA) for detecting the protein expression. The relative amount was calculated with Image-Pro plus 4.5 software (Media Cybernetics, Silver Spring, USA). The group added with only LPS was taken as 100%. β-actin (monoclonal antibody, Sigma, St Louis, Mo., USA) was taken as an internal control.

For another data set, the system named is iNOS. Briefly: iNOS protein expression in LPS-stimulated RAW264.7 macrophage cells, immunoblot analysis. It is filed as cell-based, mouse. Conditions: for levels of iNOS protein relative to control cells stimulated with LPS only: concentration of 10 mM (so in the source), LPS alone = 100%, mean±SEM, n=6; for effect on expression of inducible nitric oxide synthase of macrophage cells stimulated with LPS (in words, summary): concentration not stated; for effect on expression of iNOS protein relative to control cells stimulated with LPS only (in words): FIG. 2. On the procedure: as §1, §2

The nature of data set [1]: Cytotoxicity, MTT colorimetric method, Ca9-22. It is filed as cell-based. The settings on record: human, Ca9-22 cells (gingival carcinoma). On the procedure: (§3) Cell lines were purchased from the American Type Culture Collection (ATCC). Cytotoxicity assays were performed using the MTT [3-(4,5-dimethylthiazol-2-yl)-2,5-diphenyltetrazolium bromide] colorimetric method.
Data set [2] in a line: Cytotoxicity, MTT colorimetric method, MCF-7. Conditions: human, MCF-7 cells (breast carcinoma). It is filed as cell-based. On the procedure:
as §3

Data set [3] can be described thus: Cytotoxicity, MTT colorimetric method, Hep G2. The format is cell-based. Conditions: human, Hep G2 cells (hepatocellular carcinoma). As for the experimental part: as §3
The nature of data set [4]: Cytotoxicity, MTT colorimetric method, MDA-MB-231. It is filed as cell-based. Conditions: human, MDA-MB-231 cells (breast carcinoma). As for the experimental part:
as §3

Data set [5] in a line: Cytotoxicity, MTT colorimetric method, A549. It is filed as cell-based. The settings on record: human, A549 cells (lung carcinoma). On the procedure:
as §3

The nature of data set [6]: Cytotoxicity, MTT colorimetric method, Hep 3B. The settings on record: human, Hep 3B cells (hepatocellular carcinoma). It is filed as cell-based. As for the experimental part: as §3
Setting [7] is: 10 μM, RAW264.7 cells + LPS, same experimental condition.

Regarding `O=C(/C=C/c1ccc(O)c(O)c1)OCCc1ccccc1` [CAPE, caffeic acid phenylethyl ester, reference compound], the “level of COX-2, relative intensity (LPS alone = 100%)” value in the data set with COX-2 (setting [7]) was 67.2±13.4%. For the same compound, the “level of iNOS, relative intensity (LPS alone = 100%)” value in the data set on iNOS (setting [7]) is reported as 2.5±3.7%.

On to `CCCC(=O)O[C@]1(C)CCC[C@@](C)([S+](C)[O-])C[C@H]2O[C@@H]1[C@H]1[C@@H]2[C@](C)(OC(C)=O)CC[C@@H]1C(C)C` (stereo partly shown) [formula 2], for which, in the data set on iNOS (RAW264.7 cells + LPS), the “levels of iNOS protein relative to control cells stimulated with LPS only” value was found to be 8.8±1.0%. The “effect on expression of inducible nitric oxide synthase of macrophage cells stimulated with LPS (in words, summary)” value with iNOS is given as “significantly lowered”.

On to `CCCC(=O)O[C@H]1[C@H](C(C)C)[C@@H]2[C@@H]([C@H]3C[C@](C)([S+](C)[O-])CCC[C@@](C)(OC(=O)CCC)[C@@H]2O3)[C@](C)(O)[C@@H]1OC(C)=O` (stereo partly shown) [formula 3], for which the “levels of iNOS protein relative to control cells stimulated with LPS only” value in the data set with iNOS (RAW264.7 cells + LPS) was determined as 17.8±4.7%. Further, the “effect on expression of inducible nitric oxide synthase of macrophage cells stimulated with LPS (in words, summary)” value in the data set on iNOS is reported as “significantly lowered”.

On to `C=C1C[C@H]2O[C@H]([C@@H]3[C@@H](C(C)C)[C@H](OC(=O)CC[S+](C)[O-])[C@@H](OC(C)=O)[C@@](C)(O)[C@@H]32)[C@](C)(OC(=O)CCC)CC[C@@H]1O` (stereo partly shown) [formula 4], for which the “COX-2 expression relative to control cells stimulated with LPS only” value with COX-2 (concentration of 10 mM (so in the source), RAW264.7 cells + LPS, LPS alone = 100%, mean±SEM, n=6) turned out to be 7.2±2.5%. In addition, in the data set on COX-2, the “effect on expression of cyclooxygenase-2 of macrophage cells stimulated with LPS (in words, summary)” value was “significantly lowered”. The “levels of iNOS protein relative to control cells stimulated with LPS only” value with iNOS (RAW264.7 cells + LPS) was 11.3±1.5%. Also, the “effect on expression of inducible nitric oxide synthase of macrophage cells stimulated with LPS (in words, summary)” value in the data set with iNOS is “significantly lowered”.

With `CCCC(=O)O[C@]1(C)CC[C@H](OC(C)=O)[C@@](C)(O)C[C@H]2O[C@@H]1[C@@H]1[C@@H](C(C)C)[C@H](OC(C)=O)[C@@H](OC(C)=O)[C@@](C)(O)[C@@H]12` [formula 11], the “effect on COX-2 expression with LPS treatment (in words)” value in the data set on COX-2 (10 μM, RAW264.7 cells + LPS) is recorded as “enhance the expression”. Besides, in the data set with iNOS (10 μM, RAW264.7 cells + LPS), the “effect on expression of iNOS protein relative to control cells stimulated with LPS only (in words)” value is “enhance the expression”.

As for `C/C1=C/[C@@H]2[C@@H](C(C)C)CC[C@@](C)(O)[C@@H]2CC/C(C)=C/CC1` [formula 14], in the data set on COX-2 (10 μM, RAW264.7 cells + LPS), the “effect on COX-2 expression with LPS treatment (in words)” value is reported as “effectively reduce”. Moreover, the “effect on expression of cyclooxygenase-2 of macrophage cells stimulated with LPS (in words, summary)” value in the data set with COX-2 is “effectively reduce”. Besides, the “effect on expression of iNOS protein relative to control cells stimulated with LPS only (in words)” value in the data set with iNOS (10 μM, RAW264.7 cells + LPS) is listed as “significantly reduce”. Also, the “effect on expression of inducible nitric oxide synthase of macrophage cells stimulated with LPS (in words, summary)” value in the data set with iNOS was “significantly reduce”.

`C=C1CC[C@@H](O)[C@]2(C)C[C@H](OC(C)=O)[C@@H]3[C@@H]([C@@H](C(C)C)CC[C@@]3(C)O)[C@H]12` [formula 16]: the IC50 in data set [1] was determined as 13.6 µg/mL; in data set [2], 9.9 µg/mL; in data set [3] it was 12.5 µg/mL; in data set [4], 16 µg/mL; in data set [5] it was 15.3 µg/mL; in data set [6], 9.6 µg/mL.
